Reference: ChEMBL document CHEMBL1152655, “Novel acenaphtho[1,2-b]pyrrole-carboxylic acid family: synthesis, cytotoxicity, DNA-binding and cell cycle evaluation” (Bioorg Med Chem, 2009)
Active and inactive are the calls of the source. The calls are words filed in the database; no cut-off is given here.

Columns and labels:
MCF7 = assay: Cytotoxicity against human MCF7 cells after 48 hrs by MTT assay; assay type: functional, cell-based; settings: MCF7, 48 h
HCT-8 = assay: Cytotoxicity against human HCT8 cells after 48 hrs by MTT assay; assay type: functional, cell-based; settings: HCT-8, 48 h
HeLa [1] = assay: Cytotoxicity against human HeLa cells after 48 hrs by MTT assay; assay type: functional, cell-based
Calf thymus DNA [2] = assay: Binding affinity to calf thymus DNA; assay type: nucleic-acid assay; settings: Bos taurus
HL-60 = assay: Cytotoxicity against human HL60 cells after 48 hrs by MTT assay; assay type: functional, cell-based; settings: HL-60, 48 h
A-375 = assay: Cytotoxicity against human A375 cells after 48 hrs by MTT assay; assay type: functional, cell-based; settings: A-375, 48 h
HeLa [3] = assay: Cell cycle arrest in human HeLa cells by accumulation at S phase at 11.46 uM by flow cytometry (Rvb=28.20%); assay type: functional
HeLa [4] = assay: Cell cycle arrest in human HeLa cells assessed as apoptotic cells at 11.46 uM by flow cytometry relative to control; assay type: functional
HeLa [5] = assay: Cell cycle arrest in human HeLa cells by accumulation at G2 phase at 20.06 uM by flow cytometry (Rvb=12.86%); assay type: functional
HeLa [6] = assay: Cell cycle arrest in human HeLa cells by accumulation at G1 phase at 11.46 uM by flow cytometry (Rvb=58.94%); assay type: functional
HeLa [7] = assay: Cell cycle arrest in human HeLa cells by accumulation at G2 phase at 11.46 uM by flow cytometry (Rvb=12.86%); assay type: functional
Calf thymus DNA [8] = assay: Binding affinity to calf thymus DNA assessed as conformational change at 10 uM by CD spectra; assay type: nucleic-acid assay; settings: Bos taurus
HeLa [9] = assay: Cell cycle arrest in human HeLa cells assessed as apoptotic cells at 28.65 uM by flow cytometry relative to control; assay type: functional
Calf thymus DNA [10] = assay: Binding affinity to calf thymus DNA assessed as increase in solution viscosity by viscometric titration; assay type: nucleic-acid assay; settings: Bos taurus
HeLa [11] = assay: Cell cycle arrest in human HeLa cells by accumulation at G1 phase at 20.06 uM by flow cytometry (Rvb=58.94%); assay type: functional
HeLa [12] = assay: Cell cycle arrest in human HeLa cells by accumulation at G1 phase at 28.65 uM by flow cytometry (Rvb=58.94%); assay type: functional
HeLa [13] = assay: Cell cycle arrest in human HeLa cells assessed as apoptotic cells at 20.06 uM by flow cytometry relative to control; assay type: functional
HeLa [14] = assay: Cell cycle arrest in human HeLa cells by accumulation at S phase at 20.06 uM by flow cytometry (Rvb=28.20%); assay type: functional
HeLa [15] = assay: Cell cycle arrest in human HeLa cells by accumulation at G2 phase at 28.65 uM by flow cytometry (Rvb=12.86%); assay type: functional
Calf thymus DNA [16] = assay: Binding affinity to calf thymus DNA assessed as DNA intercalation at 30 uM by UV-Vis absorption studies; assay type: nucleic-acid assay; settings: Bos taurus
HeLa [17] = assay: Cell cycle arrest in human HeLa cells by accumulation at S phase at 28.65 uM by flow cytometry (Rvb=28.20%); assay type: functional
HeLa [18] = assay: Cell cycle arrest in human HeLa cells assessed as apoptotic cells at 12.05 uM by flow cytometry relative to control; assay type: functional
HeLa [19] = assay: Cell cycle arrest in human HeLa cells by accumulation at S phase at 21.08 uM by flow cytometry (Rvb=28.20%); assay type: functional
HeLa [20] = assay: Cell cycle arrest in human HeLa cells by accumulation at G1 phase at 3.01 uM by flow cytometry (Rvb=58.94%); assay type: functional
HeLa [21] = assay: Cell cycle arrest in human HeLa cells by accumulation at G2 phase at 3.01 uM by flow cytometry (Rvb=12.86%); assay type: functional
HeLa [22] = assay: Cell cycle arrest in human HeLa cells assessed as apoptotic cells at 21.08 uM by flow cytometry relative to control; assay type: functional
HeLa [23] = assay: Cell cycle arrest in human HeLa cells assessed as apoptotic cells at 3.01 uM by flow cytometry relative to control; assay type: functional
HeLa [24] = assay: Cell cycle arrest in human HeLa cells by accumulation at S phase at 3.01 uM by flow cytometry (Rvb=28.20%); assay type: functional
HeLa [25] = assay: Cell cycle arrest in human HeLa cells by accumulation at G2 phase at 12.05 uM by flow cytometry (Rvb=12.86%); assay type: functional
HeLa [26] = assay: Cell cycle arrest in human HeLa cells by accumulation at S phase at 12.05 uM by flow cytometry (Rvb=28.20%); assay type: functional
HeLa [27] = assay: Cell cycle arrest in human HeLa cells by accumulation at G1 phase at 12.05 uM by flow cytometry (Rvb=58.94%); assay type: functional
HeLa [28] = assay: Cell cycle arrest in human HeLa cells by accumulation at G2 phase at 21.08 uM by flow cytometry (Rvb=12.86%); assay type: functional
HeLa [29] = assay: Cell cycle arrest in human HeLa cells by accumulation at G1 phase at 21.08 uM by flow cytometry (Rvb=58.94%); assay type: functional

| K (Calf thymus DNA [2]) | Compound | IC50 (MCF7) | IC50 (HCT-8) | IC50 (HeLa [1]) | IC50 (HL-60) | IC50 (A-375) | further results |
| --- | --- | --- | --- | --- | --- | --- | --- |
| 4.73 ×10⁵ /M | CCCCNc1ccc2c3c(cccc13)C1=NC(=O)C(C(=O)O)=C12 | > 100 µM | 48.1 µM | 30.3 µM | 24.1 µM | 50.1 µM | – |
| 5.48 ×10⁵ /M | CCN(CC)CCNc1ccc2c3c(cccc13)C1=NC(=O)C(C(=O)O)=C12 | 16.5 µM | 38.1 µM | 10.4 µM | 19.8 µM | 71.8 µM | – |
| 2.91 ×10⁵ /M | O=C(O)C1=C2C(=NC1=O)c1cccc3c(N4CCCCC4)ccc2c13 | 14.5 µM | 24.4 µM | 20.6 µM | 20.5 µM | 18.4 µM | Activity (HeLa [18]): 4.81%; Activity (HeLa [19]): 33.58%; Activity (HeLa [20]): 64.63%; Activity (HeLa [21]): 3.75%; Activity (HeLa [22]): 11.95%; Activity (HeLa [23]): 4.34%; Activity (HeLa [24]): 31.63%; Activity (Calf thymus DNA [8]): Active; Activity (HeLa [25]): 9.46%; Activity (Calf thymus DNA [10]): Dose-dependent effect; Activity (HeLa [26]): 30.52%; Activity (HeLa [27]): 60.02%; Activity (HeLa [28]): 12.75%; Activity (HeLa [29]): 53.67%; Activity (Calf thymus DNA [16]): Active |
| 5.96 ×10⁵ /M | CN(C)CCNc1ccc2c3c(cccc13)C1=NC(=O)C(C(=O)O)=C12 | 97 µM | > 100 µM | 89.7 µM | 47.9 µM | > 100 µM | – |
| 6.75 ×10⁵ /M | O=C(O)C1=C2C(=NC1=O)c1cccc3c(NCc4cccs4)ccc2c13 | > 100 µM | > 100 µM | 84.3 µM | 90 µM | > 100 µM | – |

Further lines, the molecule ahead of its results:

| Compound | K (Calf thymus DNA [2]) | IC50 (MCF7) | IC50 (HCT-8) | IC50 (HeLa [1]) | IC50 (HL-60) | IC50 (A-375) | further results |
| --- | --- | --- | --- | --- | --- | --- | --- |
| CN1CCN(c2ccc3c4c(cccc24)C2=NC(=O)C(C(=O)O)=C23)CC1 | 6.13 ×10⁵ /M | 14.9 µM | 72.1 µM | 17.2 µM | 51 µM | 28.5 µM | – |
| O=C(O)C1=C2C(=NC1=O)c1cccc3c(N4CCOCC4)ccc2c13 | 2.34 ×10⁵ /M | 18 µM | > 100 µM | 36.2 µM | 42.2 µM | 79.4 µM | – |
| CN(C)CCCNc1ccc2c3c(cccc13)C1=NC(=O)C(C(=O)O)=C12 | 6.01 ×10⁵ /M | 70.5 µM | > 100 µM | 29.3 µM | 13.1 µM | > 100 µM | Activity (HeLa [3]): 35.96%; Activity (HeLa [4]): 5.22%; Activity (HeLa [5]): 18.6%; Activity (HeLa [6]): 50.87%; Activity (HeLa [7]): 13.17%; Activity (Calf thymus DNA [8]): Active; Activity (HeLa [9]): 13.89%; Activity (Calf thymus DNA [10]): Dose-dependent effect; Activity (HeLa [11]): 35.97%; Activity (HeLa [12]): 34.1%; Activity (HeLa [13]): 11.13%; Activity (HeLa [14]): 45.43%; Activity (HeLa [15]): 17.49%; Activity (Calf thymus DNA [16]): Active; Activity (HeLa [17]): 48.41% |
| COC(=O)C1=C2C(=NC1=O)c1cccc3c(N4CCSCC4)ccc2c13 | – | 68 µM | > 100 µM | 26.9 µM | > 100 µM | > 100 µM | – |
| N#CC1=C2C(=NC1=O)c1cccc3c(N4CCSCC4)ccc2c13 | – | 41.2 µM | 25.8 µM | 15.7 µM | 28.6 µM | 48.7 µM | – |
| O=C(O)C1=C2C(=NC1=O)c1cccc3c(N4CCSCC4)ccc2c13 | 2.69 ×10⁵ /M | > 100 µM | > 100 µM | 48.9 µM | 76.9 µM | > 100 µM | – |
